# According to patent EP3033337B1, “SUBSTITUTED IMIDAZOLES AS N-TYPE CALCIUM CHANNEL BLOCKERS” (Janssen Pharmaceutica NV, priority 2013, dated 2015):
# Where two headings read alike, the source gives them in different places.
# Tests used:
# human N-type Ca channel [1] = target: T1, human N-type Ca channel (Homo sapiens, UniProt Q00975); experiment: Calcium influx assay (FDSS), KCl depolarization, Fluo8 dye; assay type: cell-based; set-up: host or cells: HEK 293; conditions: HEK 293 cells expressing human N-type Ca channel; 100 mM KCl; read-out: N Type IC50 Data FDSS
# T1 sequence (Q00975 whole entry): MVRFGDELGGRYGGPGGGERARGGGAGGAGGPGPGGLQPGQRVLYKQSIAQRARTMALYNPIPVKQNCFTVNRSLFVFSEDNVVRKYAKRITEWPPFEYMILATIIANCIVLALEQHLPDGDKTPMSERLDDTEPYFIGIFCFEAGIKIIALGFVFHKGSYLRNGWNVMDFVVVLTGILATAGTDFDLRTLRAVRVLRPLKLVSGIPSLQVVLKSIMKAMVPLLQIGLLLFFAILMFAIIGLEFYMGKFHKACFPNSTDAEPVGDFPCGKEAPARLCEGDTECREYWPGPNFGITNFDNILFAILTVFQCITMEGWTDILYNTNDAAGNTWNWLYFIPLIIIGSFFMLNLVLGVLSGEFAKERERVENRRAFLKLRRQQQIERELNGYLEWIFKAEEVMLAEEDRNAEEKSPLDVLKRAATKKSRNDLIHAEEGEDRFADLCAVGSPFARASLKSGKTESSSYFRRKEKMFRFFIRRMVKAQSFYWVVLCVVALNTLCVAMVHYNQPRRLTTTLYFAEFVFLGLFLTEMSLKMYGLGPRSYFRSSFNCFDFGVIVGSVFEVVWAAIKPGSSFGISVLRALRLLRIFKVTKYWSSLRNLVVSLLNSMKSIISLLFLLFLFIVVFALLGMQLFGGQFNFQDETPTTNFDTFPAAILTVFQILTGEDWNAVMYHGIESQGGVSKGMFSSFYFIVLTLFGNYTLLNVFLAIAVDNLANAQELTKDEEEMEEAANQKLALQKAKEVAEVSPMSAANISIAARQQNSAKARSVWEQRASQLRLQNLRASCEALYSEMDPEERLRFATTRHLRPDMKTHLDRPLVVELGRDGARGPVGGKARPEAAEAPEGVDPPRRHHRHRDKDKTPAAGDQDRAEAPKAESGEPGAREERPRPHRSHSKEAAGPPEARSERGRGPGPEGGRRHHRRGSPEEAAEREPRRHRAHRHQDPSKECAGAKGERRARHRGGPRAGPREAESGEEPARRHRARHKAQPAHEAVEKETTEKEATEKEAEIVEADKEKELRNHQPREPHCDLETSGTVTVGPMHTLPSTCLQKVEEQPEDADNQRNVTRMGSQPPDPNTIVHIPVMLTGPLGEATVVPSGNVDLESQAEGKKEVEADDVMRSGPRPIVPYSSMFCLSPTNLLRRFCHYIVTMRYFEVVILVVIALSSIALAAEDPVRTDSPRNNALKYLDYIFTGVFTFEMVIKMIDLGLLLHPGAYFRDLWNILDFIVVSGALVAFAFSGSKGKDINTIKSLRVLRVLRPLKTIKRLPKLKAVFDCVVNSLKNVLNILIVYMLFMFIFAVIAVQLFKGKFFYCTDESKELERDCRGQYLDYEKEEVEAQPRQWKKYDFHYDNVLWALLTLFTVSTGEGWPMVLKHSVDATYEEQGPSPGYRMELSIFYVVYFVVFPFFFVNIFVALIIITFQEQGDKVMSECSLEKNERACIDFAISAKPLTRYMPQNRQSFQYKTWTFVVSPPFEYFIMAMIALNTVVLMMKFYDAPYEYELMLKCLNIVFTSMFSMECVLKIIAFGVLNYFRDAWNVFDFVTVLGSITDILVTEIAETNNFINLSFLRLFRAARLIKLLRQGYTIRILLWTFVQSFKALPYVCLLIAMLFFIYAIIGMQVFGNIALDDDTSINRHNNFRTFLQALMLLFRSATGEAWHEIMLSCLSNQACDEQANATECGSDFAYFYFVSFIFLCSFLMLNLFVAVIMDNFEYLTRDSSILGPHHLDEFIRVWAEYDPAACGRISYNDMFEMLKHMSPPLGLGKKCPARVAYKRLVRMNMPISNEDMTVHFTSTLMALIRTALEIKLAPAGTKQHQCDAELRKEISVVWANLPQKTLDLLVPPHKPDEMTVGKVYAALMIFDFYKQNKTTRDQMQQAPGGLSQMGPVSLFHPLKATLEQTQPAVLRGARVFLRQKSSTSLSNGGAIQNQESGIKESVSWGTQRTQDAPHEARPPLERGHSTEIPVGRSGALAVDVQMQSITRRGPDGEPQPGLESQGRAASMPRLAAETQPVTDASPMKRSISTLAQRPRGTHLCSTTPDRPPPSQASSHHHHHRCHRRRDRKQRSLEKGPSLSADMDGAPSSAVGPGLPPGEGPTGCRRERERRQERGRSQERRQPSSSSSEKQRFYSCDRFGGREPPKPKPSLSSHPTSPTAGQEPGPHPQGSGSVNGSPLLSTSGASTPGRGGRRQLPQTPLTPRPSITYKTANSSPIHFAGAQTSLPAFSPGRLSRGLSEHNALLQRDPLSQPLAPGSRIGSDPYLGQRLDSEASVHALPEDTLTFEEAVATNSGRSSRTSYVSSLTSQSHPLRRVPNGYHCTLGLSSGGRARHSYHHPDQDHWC
# T1 sequence (P54284 whole entry partner): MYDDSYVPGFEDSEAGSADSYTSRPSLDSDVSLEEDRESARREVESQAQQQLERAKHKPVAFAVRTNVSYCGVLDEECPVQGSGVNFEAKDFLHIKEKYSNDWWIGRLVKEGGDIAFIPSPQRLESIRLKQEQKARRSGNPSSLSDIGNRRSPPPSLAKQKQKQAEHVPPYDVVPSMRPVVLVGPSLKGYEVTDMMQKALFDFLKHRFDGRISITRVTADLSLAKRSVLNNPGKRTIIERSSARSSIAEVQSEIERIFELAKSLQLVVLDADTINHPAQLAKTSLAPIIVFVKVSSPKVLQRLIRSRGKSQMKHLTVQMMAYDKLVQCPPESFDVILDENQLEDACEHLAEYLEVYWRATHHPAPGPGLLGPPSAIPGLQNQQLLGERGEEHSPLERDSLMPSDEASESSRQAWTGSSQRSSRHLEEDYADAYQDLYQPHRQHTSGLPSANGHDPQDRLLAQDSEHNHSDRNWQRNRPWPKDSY
# T1 sequence (P54289 25-956 partner limits assumed): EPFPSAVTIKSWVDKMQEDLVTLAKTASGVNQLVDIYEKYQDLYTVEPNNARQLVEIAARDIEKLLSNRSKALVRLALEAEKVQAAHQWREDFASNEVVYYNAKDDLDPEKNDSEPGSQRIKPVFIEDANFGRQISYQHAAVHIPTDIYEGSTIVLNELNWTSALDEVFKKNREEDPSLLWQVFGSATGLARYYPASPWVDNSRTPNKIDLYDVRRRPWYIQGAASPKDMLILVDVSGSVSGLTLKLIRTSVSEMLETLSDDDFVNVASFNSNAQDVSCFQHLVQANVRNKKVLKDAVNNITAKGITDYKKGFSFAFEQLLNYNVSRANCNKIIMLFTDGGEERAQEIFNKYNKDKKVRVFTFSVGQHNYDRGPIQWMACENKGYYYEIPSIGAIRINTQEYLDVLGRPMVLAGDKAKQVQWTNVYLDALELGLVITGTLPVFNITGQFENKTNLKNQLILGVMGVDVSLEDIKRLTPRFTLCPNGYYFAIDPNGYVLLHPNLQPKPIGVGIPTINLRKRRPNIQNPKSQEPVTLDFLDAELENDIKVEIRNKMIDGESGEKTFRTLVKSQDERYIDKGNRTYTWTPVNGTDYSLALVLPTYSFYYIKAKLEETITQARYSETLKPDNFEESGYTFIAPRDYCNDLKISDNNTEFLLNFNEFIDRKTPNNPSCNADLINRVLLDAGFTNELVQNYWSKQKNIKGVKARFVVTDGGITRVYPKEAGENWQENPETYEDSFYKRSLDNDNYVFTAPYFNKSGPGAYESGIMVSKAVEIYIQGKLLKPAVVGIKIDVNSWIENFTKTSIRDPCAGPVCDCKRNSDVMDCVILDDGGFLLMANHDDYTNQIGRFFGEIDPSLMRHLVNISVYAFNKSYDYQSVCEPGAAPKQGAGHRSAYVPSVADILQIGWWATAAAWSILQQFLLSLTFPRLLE
# T1 sequence (P54289 957-1103 partner limits assumed): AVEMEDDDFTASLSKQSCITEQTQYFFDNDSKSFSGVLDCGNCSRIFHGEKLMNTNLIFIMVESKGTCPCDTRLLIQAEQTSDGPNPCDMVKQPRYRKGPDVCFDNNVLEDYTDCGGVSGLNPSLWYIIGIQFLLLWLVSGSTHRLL
# Protocol: All cell culture reagents were procured from HyClone and other reagents were from Fisher. Recombinant HEK 293 cells expressing human N-type Ca channel (Millipore) were maintained in DMEM F12 containing 10% FBS and selection antibiotics at 37 °C in 5% CO2.
# Cells were incubated at 30 °C in 5% CO2 overnight. The medium was removed and cells were loaded with Fluo8 dye (AAT Bioquest) at 37 °C and 30 °C, 30 min each in darkness. Cells were washed four times with wash buffer (16 mM Herep pH 7.2, 2 mM CaCl2, 1 mM MgCl2, 5 mM glucose, 140 mM choline chloride and 2 mM KCl) leaving 15 µL buffer after the last wash. Compounds of Formula (I), serially diluted, were added to the cell plate. The plates were incubated in darkness for 15 min. Cells were depolarized with 100 mM KCl and Ca influx was measured.
# human N-type Ca channel [2] = target: T1, human N-type Ca channel; experiment: Electrophysiological response, QPatch (depolarization -80 mV to +20 mV)
# Protocol: The recombinant cell line described above was used in the measurement of electrophysiological properties with QPatch (Sophion). Cells were maintained in culture as mentioned above. Prior to the experiment, the flasks were moved to 30 °C and incubated for 48-72 hrs. On the day of assaying, cells were detached and harvested. The cell pellet was re-suspended in SMF4HEK (HyClone)/25mM HEPS at 2-5 million/ mL and placed on the QStirrer of the QPatch for 30-60 min prior to the start of the assay. […] Microtiter-Plate/Reference Buffer contained 140 mM TEA-Cl, 10mM BaCl2, 0.8 mM MgCl2, 10 mM HEPES pH ∼7.4 adjusted with TEA-OH/HCl, and ∼300mOsm. Cells were transferred to a QPatch 48 plate and gigaseal was formed. The plate was perfused with intracellular and extracellular buffer. […] In brief, cells were depolarized from resting potential of -80 mV to +20 mV and current was recorded. Data was plotted as percent inhibition vs concentration of the compound and IC50 values were generated using Graphpad Prism non-linear regression analysis.
# [3] = N Type IC50 Data Qpatch Pulse=1, Pulse=1, concentration range 0.01-1 µM
# [4] = N Type IC50 Data Qpatch Pulse=15, Pulse=15, concentration range 0.01-1 µM
# [5] = Pulse=1, concentration range 0.01-0.3 µM
# [6] = Pulse=15, concentration range 0.01-0.3 µM
# [7] = read-out: Qpatch Pulse=1 (percent inhibition)
# [8] = read-out: N Type IC50 Data Qpatch Pulse=15, Pulse=15, concentration range 0.01-1 µM
# [9] = N Type IC50 Data Qpatch Pulse=1, Pulse=1, concentration range 0.3-10 µM
# [10] = N Type IC50 Data Qpatch Pulse=15, Pulse=15, concentration range 0.3-10 µM
SMILES,IC50 (human N-type Ca channel [1]) [nM],IC50 (human N-type Ca channel [2]; [3]) [nM],IC50 (human N-type Ca channel [2]; [8]) [nM],IC50 (human N-type Ca channel [2]; [10]) [nM],further results
"Cn1cnnc1-c1nc(C2CC(C)(C)OC(C)(C)C2)cn1-c1ccc(Cl)cc1 [Compound 26, 3-(1-(4-chlorophenyl)-4-(2,2,6,6-tetramethyltetrahydro-2H-pyran-4-yl)-1H-imidazol-2-yl)-4-methyl-4H-1,2,4-triazole]",5760,> 1000,–,–,IC50 (human N-type Ca channel [2]; [4]): > 1000 nM
"COc1ncccc1-c1nc(C2CC(C)(C)OC(C)(C)C2)cn1Cc1ccccc1Cl [Compound 27, 3-(1-(2-chlorobenzyl)-4-(2,2,6,6-tetramethyltetrahydro-2H-pyran-4-yl)-1H-imidazol-2-yl)-2-methoxypyridine]",6400,–,–,–,"IC50 (human N-type Ca channel [2]; N Type IC50 Data Qpatch Pulse=15, Pulse=15, concentration range 0.01-0.3 µM): 1900 nM; N Type IC50 Data Qpatch Pulse=1 (human N-type Ca channel [2]; [5]): poor fit(0.01-0.3 µM)"
"COc1ncccc1-c1nc(C2CC(C)(C)OC(C)(C)C2)cn1-c1ccc(C#N)c(C(F)(F)F)c1 [Compound 29, 4-(2-(2-methoxypyridin-3-yl)-4-(2,2,6,6-tetramethyltetrahydro-2H-pyran-4-yl)-1H-imidazol-1-yl)-2-(trifluoromethyl) benzonitrile]",492,–,–,–,N Type IC50 Data Qpatch Pulse=1 (human N-type Ca channel [2]; [5]): poor fit(0.01-0.3 µM); N Type IC50 Data Qpatch Pulse=15 (human N-type Ca channel [2]; [6]): poor fit(0.01-0.3 µM)
"COc1ccccc1-c1nc(C2CC(C)(C)OC(C)(C)C2)cn1-c1cccc(C#N)c1 [Compound 32, 3-(2-(2-methoxyphenyl)-4-(2,2,6,6-tetramethyltetrahydro-2H-pyran-4-yl)-1H-imidazol-1-yl)benzonitrile]",278,> 1000,> 1000,–,–
"COc1cc(-n2cc(C3CC(C)(C)OC(C)(C)C3)nc2-c2ccccc2OC)ccc1C#N [Compound 34, 2-methoxy-4-(2-(2-methoxyphenyl)-4-(2,2,6,6-tetramethyltetrahydro-2H-pyran-4-yl)-1H-imidazol-1-yl)benzonitrile]",1620,–,> 1000,–,–
"COc1ccccc1-c1nc(C2CC(C)(C)OC(C)(C)C2)cn1-c1ccc(C#N)cc1F [Compound 36, 3-fluoro-4-(2-(2-methoxyphenyl)-4-(2,2,6,6-tetramethyltetrahydro-2H-pyran-4-yl)-1H-imidazol-1-yl)benzonitrile]",40,376,> 1000,–,–
"COc1ccc(-n2cc(C3CC(C)(C)OC(C)(C)C3)nc2-c2ccccc2OC)cc1C#N [Compound 37, 2-methoxy-5-(2-(2-methoxyphenyl)-4-(2,2,6,6-tetramethyltetrahydro-2H-pyran-4-yl)-1H-imidazol-1-yl)benzonitrile]",424,–,> 1000,–,"IC50 (human N-type Ca channel [2]; read-out: N Type IC50 Data Qpatch Pulse=1, Pulse=1, concentration range 0.01-1 µM): > 1000 nM"
"COc1ccccc1-c1nc(C2CC(C)(C)OC(C)(C)C2)cn1-c1ccc(Cl)cn1 [Compound 39, 5-chloro-2-(2-(2-methoxyphenyl)-4-(2,2,6,6-tetramethyltetrahydro-2H-pyran-4-yl)-1H-imidazol-1-yl)pyridine]",163,–,–,1900,IC50 (human N-type Ca channel [2]; [9]): 1700 nM
"COc1nccnc1-c1nc(C2CC(C)(C)OC(C)(C)C2)cn1-c1ccc(F)cc1 [Compound 47, 2-(1-(4-fluorophenyl)-4-(2,2,6,6-tetramethyltetrahydro-2H-pyran-4-yl)-1H-imidazol-2-yl)-3-methoxypyrazine]",1540,> 1000,> 1000,–,–
"COc1nccnc1-c1nc(C2CC(C)(C)OC(C)(C)C2)cn1-c1ccc(Cl)cc1 [Compound 50, 2-(1-(4-chlorophenyl)-4-(2,2,6,6-tetramethyltetrahydro-2H-pyran-4-yl)-1H-imidazol-2-yl)-3-methoxypyrazine]",215,> 1000,–,–,IC50 (human N-type Ca channel [2]; [4]): 971 nM

# Further lines, with some results ahead:
IC50 (human N-type Ca channel [1]) [nM],IC50 (human N-type Ca channel [2]; [3]) [nM],IC50 (human N-type Ca channel [2]; [8]) [nM],IC50 (human N-type Ca channel [2]; [10]) [nM],SMILES,further results
1640,–,–,–,"COc1ncccc1-c1nc(C2CC(C)(C)OC(C)(C)C2)cn1Cc1ccc(Cl)cc1 [Compound 28, 3-(1-(4-chlorobenzyl)-4-(2,2,6,6-tetramethyltetrahydro-2H-pyran-4-yl)-1H-imidazol-2-yl)-2-methoxypyridine]",N Type IC50 Data Qpatch Pulse=1 (human N-type Ca channel [2]; [5]): poor fit(0.01-0.3 µM); N Type IC50 Data Qpatch Pulse=15 (human N-type Ca channel [2]; [6]): poor fit(0.01-0.3 µM)
321,–,–,–,"COc1ncccc1-c1nc(C2CC(C)(C)OC(C)(C)C2)cn1-c1ccc(F)cc1F [Compound 30, 3-(1-(2,4-difluorophenyl)-4-(2,2,6,6-tetramethyltetrahydro-2H-pyran-4-yl)-1H-imidazol-2-yl)-2-methoxypyridine]",inhibition at 10 µM (human N-type Ca channel [2]; [7]): 67%; inhibition at 10 µM (human N-type Ca channel [2]; read-out: Qpatch Pulse=15 (percent inhibition)): 35%
769,–,–,–,"COc1ncccc1-c1nc(C2CC(C)(C)OC(C)(C)C2)cn1-c1cccc(F)c1F [Compound 31, 3-(1-(2,3-difluorophenyl)-4-(2,2,6,6-tetramethyltetrahydro-2H-pyran-4-yl)-1H-imidazol-2-yl)-2-methoxypyridine]","IC50 (human N-type Ca channel [2]; N Type IC50 Data Qpatch Pulse=1, Pulse=1, concentration range 0.01-0.3 µM): 1580 nM; N Type IC50 Data Qpatch Pulse=15 (human N-type Ca channel [2]; [6]): poor fit(0.01-0.3 ,u.M)"
459,> 1000,> 1000,–,"COc1cnccc1-c1nc(C2CC(C)(C)OC(C)(C)C2)cn1-c1ccc(F)c(F)c1 [Compound 33, 4-(1-(3,4-difluorophenyl)-4-(2,2,6,6-tetramethyltetrahydro-2H-pyran-4-yl)-1H-imidazol-2-yl)-3-methoxypyridine]",–
822,–,–,1940,"COc1ncccc1-c1nc(C2CC(C)(C)OC(C)(C)C2)cn1-c1ccc(F)c(F)c1 [Compound 40, 3-(1-(3,4-difluorophenyl)-4-(2,2,6,6-tetramethyltetrahydro-2H-pyran-4-yl)-1H-imidazol-2-yl)-2-methoxypyridine]",inhibition at 10 µM (human N-type Ca channel [2]; [7]): 52%
131,–,–,602,"COc1ccccc1-c1nc(C2CC(C)(C)OC(C)(C)C2)cn1-c1ccc(Cl)c(F)c1 [Compound 41, 1-(4-chloro-3-fluorophenyl)-2-(2-methoxyphenyl)-4-(2,2,6,6-tetramethyltetrahydro-2H-pyran-4-yl)-1H-imidazole]",inhibition at 10 µM (human N-type Ca channel [2]; [7]): 71%
194,–,–,1080,"COc1ccccc1-c1nc(C2CC(C)(C)OC(C)(C)C2)cn1-c1ccc(F)c(F)c1 [Compound 42, 1-(31,4-difluorophenyl)-2-(2-methoxyphenyl)-4-(2,2,6,6-tetramethyltetrahydro-2H-pyran-4-yl)-1H-imidazole]",IC50 (human N-type Ca channel [2]; [9]): 2600 nM
291,–,–,7500,"COc1ncccc1-c1nc(C2CC(C)(C)OC(C)(C)C2)cn1-c1ccc(C#N)cc1 [Compound 43, 4-(2-(2-methoxypyridin-3-yl)-4-(2,2,6,6-tetramethyltetrahydro-2H-pyran-4-yl)-1H-imidazol-1-yl)benzonitrile]",inhibition at 10 µM (human N-type Ca channel [2]; [7]): 34%
142,–,–,3080,"COc1ncccc1-c1nc(C2CC(C)(C)OC(C)(C)C2)cn1-c1ccc(Cl)c(F)c1 [Compound 44, 3-(1-(4-chloro-3-fluorophenyl)-4-(2,2,6,6-tetramethyltetrahydro-2H-pyran-4-yl)-1H-imidazol-2-yl)-2-methoxypyridine]",IC50 (human N-type Ca channel [2]; [9]): 2900 nM
149,–,–,671,"COc1ccccc1-c1nc(C2CC(C)(C)OC(C)(C)C2)cn1-c1ccc(F)c(Cl)c1 [Compound 45, 1-(3-chloro-4-fluorophenyl)-2-(2-methoxyphenyl)-4-(2,2,6,6-tetramethyltetrahydro-2H-pyran-4-yl)-1H-imidazole]",IC50 (human N-type Ca channel [2]; [9]): 2200 nM
255,–,–,2500,"COc1ncccc1-c1nc(C2CC(C)(C)OC(C)(C)C2)cn1-c1ccc(F)c(Cl)c1 [Compound 46, 3-(1-(3-chloro-4-fluorophenyl)-4-(2,2,6,6-tetramethyltetrahydro-2H-pyran-4-yl)-1H-imidazol-2-yl)-2-methoxypyridine]",–
5410,222,–,–,"COc1ncccc1-c1nc(C2CC(C)(C)OC(C)(C)C2)cn1-c1cccc(C#N)c1 [Compound 48, 3-(2-(2-methoxypyridin-3-yl)-4-(2,2,6,6-tetramethyltetrahydro-2H-pyran-4-yl)-1H-imidazol-1-yl)benzonitrile]",IC50 (human N-type Ca channel [2]; [4]): 843 nM
123,> 1000,> 1000,–,"COc1ncncc1-c1nc(C2CC(C)(C)OC(C)(C)C2)cn1-c1ccc(Cl)cc1 [Compound 49, 5-(1-(4-chlorophenyl)-4-(2,2,6,6-tetramethyltetrahydro-2H-pyran-4-yl)-1H-imidazol-2-yl)-4-methoxypyrimidine]",–
29,179,–,–,"CCOc1ncccc1-c1nc(C2CC(C)(C)OC(C)(C)C2)cn1-c1ccc(Cl)cc1 [Compound 51, 3-(1-(4-chlorophenyl)-4-(2,2,6,6-tetramethyltetrahydro-2H-pyran-4-yl)-1H-imidazol-2-yl)-2-ethoxypyridine]",IC50 (human N-type Ca channel [2]; [4]): 701 nM
115,721,> 1000,–,"CCOc1ncccc1-c1nc(C2CC(C)(C)OC(C)(C)C2)cn1-c1ccc(F)c(F)c1 [Compound 52, 3-(1-(3,4-difluorophenyl)-4-(2,2,6,6-tetramethyltetrahydro-2H-pyran-4-yl)-1H-imidazol-2-yl)-2-ethoxypyridine]",–
